Test results published in the supplement of paper PMC10307832.

What was measured:
Experiment in all cases: relative viability (nuclei count vs DMSO), 5 days (fraction); higher = more cells survive
CAP-232 + Bortezomib = compound: C[C@H]([C@@H](C(=O)N)NC(=O)[C@@H]1CSSC[C@@H](C(=O)N[C@H](C(=O)N[C@@H](C(=O)N[C@H](C(=O)N1)CCCCN)CC2=CNC3=CC=CC=C32)CC4=CC=C(C=C4)O)NC(=O)[C@@H](CC5=CC=CC=C5)N)O [CAP-232] + CC(C)C[C@H](NC(=O)[C@H](Cc1ccccc1)NC(=O)c1cnccn1)B(O)O [Bortezomib] (partner 0.002 µM)
Outline: (§1)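 Nuclei were stained with Hoechst during a one-step fixation (final 0.05% Triton X-100, 1% formaldehyde, 1 ug/ml Hoechst) carried out 5 days after dosing, then counted on 4× images. The cells, lung cancer lines in 1536-well plates, had been dosed by pin tool the day after seeding with one drug alone or a fixed anchor-drug dose plus five library-drug doses (not always all listed) in √10 steps. Relative viability is the nuclei count in treated wells divided by that in vehicle wells, and each value is the median of duplicate plates.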

CAP-232 + Navitoclax = compound: C[C@H]([C@@H](C(=O)N)NC(=O)[C@@H]1CSSC[C@@H](C(=O)N[C@H](C(=O)N[C@@H](C(=O)N[C@H](C(=O)N1)CCCCN)CC2=CNC3=CC=CC=C32)CC4=CC=C(C=C4)O)NC(=O)[C@@H](CC5=CC=CC=C5)N)O [CAP-232] + CC1(C)CCC(c2ccc(Cl)cc2)=C(CN2CCN(c3ccc(C(=O)NS(=O)(=O)c4ccc(N[C@H](CCN5CCOCC5)CSc5ccccc5)c(S(=O)(=O)C(F)(F)F)c4)cc3)CC2)C1 [Navitoclax] (partner 0.5 µM)
Outline: as §1

CAP-232 + OSI-027 = compound: C[C@H]([C@@H](C(=O)N)NC(=O)[C@@H]1CSSC[C@@H](C(=O)N[C@H](C(=O)N[C@@H](C(=O)N[C@H](C(=O)N1)CCCCN)CC2=CNC3=CC=CC=C32)CC4=CC=C(C=C4)O)NC(=O)[C@@H](CC5=CC=CC=C5)N)O [CAP-232] + COc1cccc2cc(-c3nc([C@H]4CC[C@H](C(=O)O)CC4)n4ncnc(N)c34)[nH]c12 [OSI-027] (partner 0.5 µM)
Outline: as §1

CAP-232 + Lapatinib = compound: C[C@H]([C@@H](C(=O)N)NC(=O)[C@@H]1CSSC[C@@H](C(=O)N[C@H](C(=O)N[C@@H](C(=O)N[C@H](C(=O)N1)CCCCN)CC2=CNC3=CC=CC=C32)CC4=CC=C(C=C4)O)NC(=O)[C@@H](CC5=CC=CC=C5)N)O [CAP-232] + CS(=O)(=O)CCNCc1ccc(-c2ccc3ncnc(Nc4ccc(OCc5cccc(F)c5)c(Cl)c4)c3c2)o1 [Lapatinib] (partner 2 µM)
Outline: as §1

CAP-232 + Pictilisib = compound: C[C@H]([C@@H](C(=O)N)NC(=O)[C@@H]1CSSC[C@@H](C(=O)N[C@H](C(=O)N[C@@H](C(=O)N[C@H](C(=O)N1)CCCCN)CC2=CNC3=CC=CC=C32)CC4=CC=C(C=C4)O)NC(=O)[C@@H](CC5=CC=CC=C5)N)O [CAP-232] + CS(=O)(=O)N1CCN(Cc2cc3nc(-c4cccc5[nH]ncc45)nc(N4CCOCC4)c3s2)CC1 [Pictilisib] (partner 1 µM)
Outline: as §1

Cell Line	relative viability (CAP-232 + Bortezomib; first compound 0.4 µM)	relative viability (CAP-232 + Bortezomib; first compound 1.265 µM)	relative viability (CAP-232 + Bortezomib; first compound 4 µM)	relative viability (CAP-232 + Bortezomib; first compound 12.65 µM)	relative viability (CAP-232 + Navitoclax; first compound 0.4 µM)	relative viability (CAP-232 + Navitoclax; first compound 1.265 µM)	relative viability (CAP-232 + Navitoclax; first compound 4 µM)	relative viability (CAP-232 + Navitoclax; first compound 12.65 µM)	relative viability (CAP-232 + OSI-027; first compound 0.4 µM)	relative viability (CAP-232 + OSI-027; first compound 1.265 µM)	relative viability (CAP-232 + OSI-027; first compound 4 µM)	relative viability (CAP-232 + OSI-027; first compound 12.65 µM)	relative viability (CAP-232 + Lapatinib; first compound 0.4 µM)	relative viability (CAP-232 + Lapatinib; first compound 1.265 µM)	relative viability (CAP-232 + Lapatinib; first compound 4 µM)	relative viability (CAP-232 + Lapatinib; first compound 12.65 µM)	relative viability (CAP-232 + Pictilisib; first compound 0.4 µM)	relative viability (CAP-232 + Pictilisib; first compound 1.265 µM)	relative viability (CAP-232 + Pictilisib; first compound 4 µM)	relative viability (CAP-232 + Pictilisib; first compound 12.65 µM)
NCI-H647	0.938	0.807	0.931	0.562	1.35	1.27	1.31	1.09	0.576	0.775	0.739	0.577	1.07	1.14	1.39	0.469	0.431	0.354	0.482	0.365
NCI-H2009	1.09	0.974	0.97	0.843	1.15	1.14	1.13	1.04	0.667	0.585	0.719	0.358	1.02	0.896	0.913	0.848	0.711	0.728	0.88	0.478
EPLC-272H	0.992	0.878	0.892	0.87	1.37	1.29	1.17	0.964	0.275	0.284	0.285	0.262	1.25	0.86	1.04	0.971	0.284	0.281	0.325	0.287
NCI-H520	0.71	0.508	0.611	0.438	1.03	0.997	1.13	0.582	0.258	0.31	0.304	0.3	0.961	0.858	0.965	0.684	0.379	0.315	0.314	0.25
NCI-H2405	1	0.867	1.07	0.9	0.821	1.07	0.795	0.562	0.626	0.648	0.693	0.518	1.03	0.99	1.12	0.722	0.372	0.441	0.565	0.322
NCI-H2085	1.2	0.974	1	0.791	1.18	1.06	1.15	1.15	0.786	0.726	0.934	0.594	0.833	0.789	0.732	0.878	0.475	0.421	0.355	0.538
NCI-H322M	1.53	1.2	1.14	1.28	1.32	1.26	1.36	1.13	0.569	0.528	0.52	0.437	0.558	0.492	0.69	0.589	0.54	0.556	0.519	0.487
NCI-H1944	–	–	–	–	1.06	1.01	1.04	0.98	0.379	0.388	0.403	0.392	0.942	0.729	0.998	0.773	0.371	0.33	0.394	0.354
LC-2-ad	1.05	1.01	1.11	1	0.428	0.363	0.497	0.33	0.954	0.852	0.756	0.559	1.07	0.891	0.949	1.09	0.404	0.409	0.63	0.458
NCI-H358	–	–	–	–	–	–	–	–	0.665	0.864	0.71	0.664	0.395	0.393	0.436	0.445	0.28	0.301	0.298	0.402
NCI-H2170	–	–	–	–	0.68	0.573	0.578	0.603	0.658	0.737	0.777	0.669	0.274	0.281	0.255	0.272	0.257	0.275	0.259	0.286
NCI-H2342	–	–	–	–	–	–	–	–	0.565	0.555	0.623	0.568	–	–	–	–	–	–	–	–
SW 900	–	–	–	–	–	–	–	–	0.66	0.54	0.726	0.449	–	–	–	–	–	–	–	–
A-427	1.21	0.972	0.993	0.964	0.926	0.996	0.941	0.965	0.306	0.458	0.494	0.612	1.09	1.04	1.17	1.09	0.508	0.654	0.842	0.853
NCI-H522	–	–	–	–	–	–	–	–	0.72	0.702	0.806	0.696	–	–	–	–	–	–	–	–
NCI-H1666	0.759	–	0.952	0.393	0.89	–	1.08	0.931	0.973	0.809	0.907	0.769	0.687	–	0.65	0.378	0.44	–	0.356	0.248
LOU-NH91	0.528	0.458	0.463	0.549	0.729	0.734	0.665	0.437	0.756	0.775	0.72	0.675	0.781	0.771	0.821	0.639	0.479	0.512	0.501	0.438
